Legend:
Superscript II = biological target: T1, Superscript II (Moloney murine leukemia virus, UniProt P03355, D1183G/D1242N/E1221Q); assay: pH-dependent reverse transcription of 5BrU-containing RNA oligonucleotide measured by sequencing; type: biochemical
T1 construct: purchased Thermo Fisher Scientific
Protocol: Further, it has been shown that 5BrU is taken up by cells, phosphorylated, and incorporated into nascent RNA (Larsen et al., Current Protocols in Cytometry. 12 (7.12): 7.12.1-7.12.11, 2001). […] We used […] of the synthetic RNA oligonucleotide which contained a 5BrU modification at a single central position. […] The reverse transcription was performed by Superscript II (Thermo Fisher Scientific) according to the instructions of the manufacturer using the RT DNA oligonucleotide primer (5″-[…]-3″, SEQ ID NO: 9) and 5×RT buffer for which pH was adjusted to pH7, pH8, or pH9, respectively. After reverse transcription, […] reverse transcription product was subjected to PCR amplification using KAPA Real-time Library Amplification Kit (KAPA Biosystems) according to the instructions of the manufacturer, using the DNA oligonucleotides Solexa PCR Fwd (5″-[…]-3′, SEQ ID NO: 10) and Solexa IDX rev (5′-[…]-3′, SEQ ID NO: 11; NNNNNN indicates the position of the barcode-nucleotides). The amplified libraries were sequenced by high-throughput sequencing using the Illumina MiSeq platform. The conversion rates for the 5BrU nucleotide were determined by counting the frequency of nucleotide A (adenine), G (guanine), and C (cytosine) other than the expected majority readout of T (thymine) at the position of 5BrU.
The pH-dependent conversion rates of 5BrU, or T in the final readout, to A (T>A conversion) show a 1.1-fold and 1.4-fold increase with an increase of pH during reverse transcription to pH 8 and pH 9 respectively compare to the background conversion rate of 3·10^−4 at pH 7 (FIG. 37C). The T>G conversion increases by 1.2- and 1.9-fold compare to the lower background conversion rate of 1·10^−4 at pH 7. In contrast, the T>C conversion rate increases by 2.2-fold and 4.3-fold compare to the background conversion rate of 3·10^−4 at pH 7. The signature of the pH dependent changes in conversion rates is characteristic for the 5BrU in the RNA and can be used to identify the number of 5BrU which are incorporated into nascent RNA during transcription.

MOLM-13 cells = assay: SLAM-seq transcriptional response to NVP-2 and JQ1 in MOLM-13 cells; type: cell-based, human
Protocol: (§1) All SLAM-seq assays were performed at 60-70% confluency for adherent cells or 60% of the maximum cell density counted on a hemocytometer for suspension cells. 5-7 h prior to each assay, growth medium was aspirated and replaced. Unless stated otherwise, cells were pre-treated with indicated small molecule inhibitors or 100 μM IAA for 30 minutes to pre-establish full target inhibition or degradation. Newly synthesized RNA was labeled for indicated time spans (45′ or 60′) at a final concentration of 100 μM 4-thiouridine (s^4U, Carbosynth). Adherent cells were harvested by direct snap-freezing of plates on dry ice. Suspension cells were spun down and immediately snap-frozen. RNA extraction was performed using the RNeasy Plus Mini Kit (Qiagen). Total RNA was subjected to alkylation by iodoacetamide (Sigma, 10 mM) for 15′ and RNA was re-purified by ethanol precipitation. […]
(§2) All other SLAM-seq experiments were performed in triplicates and analyzed as follows. Differential gene expression calling was performed on raw read counts with 2 T>C conversions using DESeq2 (version 1.14.1) with default settings, and with size factors estimated on corresponding total mRNA reads for global normalization. […]

MYC [1] = assay: Auxin-inducible degradation of AID-tagged MYC in K562 cells (immunoblotting); type: cell-based, human; details: Tir1-expressing
MYC [2] = assay: Auxin-inducible degradation of AID-tagged MYC in HCT116 cells (immunoblotting); type: cell-based, human; details: TIR1-expressing HCT116 MYC-AID cells
BRD4 = assay: Auxin-inducible degradation of AID-tagged BRD4 in K562 cells (immunoblotting); type: cell-based, human; details: AID-tagged K562 cells expressing Tir1
MV4-11 = assay: SLAM-seq transcriptional response in MV4-11 cells; type: cell-based, human; details: high-dose (1 or 5 μM)
Protocol: as §1, §2

Pol2-S2 phosphorylation [3] = assay: Pol2-S2 phosphorylation after BETi treatment in MV4-11 cells; type: cell-based, human; details: high-dose (1 or 5 μM)
Protocol: (§3) Chemiluminescent detection of primary antibodies was performed using HRP-conjugated secondary antibodies (Cell Signaling Technology, catalog numbers #7074, #7076 and #7077). Alternatively, fluorescence detection of rabbit and mouse primary antibodies was performed on an Odyssey CLx Imaging System (LI-COR Biosciences) using secondary antibodies IRDye 680RD Goat anti-Rabbit IgG and IRDye 800CW Goat anti-Mouse IgG (LI-COR Biosciences).
(§4) While these findings are in line with the promiscuous binding of BRD4 to active TSS and its physical interaction with core transcriptional machinery, they contrast selective effects observed after BETi treatment in conventional expression analysis. To define immediate transcriptional effects of BETi and compare them to BRD4 degradation, we performed SLAM-seq following treatment with different doses of the BETi JQ1 in K562 cells and the acute myeloid leukemia (AML) cell line MV4-11.

K562 cells = assay: SLAM-seq transcriptional response in K562 cells; type: cell-based, human
Protocol: as §1, §2

Pol2-S2 phosphorylation [4] = assay: Pol2-S2 phosphorylation after BETi treatment in K562 cells; type: cell-based, human; details: high-dose (1 or 5 μM)
Protocol: as §3, §4

[5] = system: reverse transcriptases (Superscript II, Superscript III, Quant-seq RT); assay: Reverse transcription of synthetic thiol-nucleotide-containing RNA followed by high-throughput sequencing; type: biochemical; details: s^6G-containing RNA
Protocol: Primer extension assays were essentially performed as described previously by Nilsen et al. (Cold Spring Harb Protoc. 2013, 1182-1185). Briefly, template RNA oligonucleotides (5L-let-7-3L or 5L-let-7-s^4Up9-3L; Dharmacon; see Table for sequences) were deprotected according to the instructions of the manufacturer and purified by denaturing polyacrylamide gel-elution. 100 μM purified RNA oligonucleotides were treated with 10 mM iodoacetamide (+IAA) or EtOH (−IAA) in standard reaction conditions (50% DMSO, 50 mM sodiumphosphate buffer, pH 8) for 15 min at 50° C. The reaction was stopped by addition of 20 mM DTT, followed by ethanol precipitation. RT primer (see Table for sequence) was 5′ radiolabeled using γ-^32P-ATP (Perkin-Elmer) and T4-polynucleotide kinase (NEB), followed by denaturing polyacrylamide gel-purification. 640 nM γ-^32P-RT primer was annealed to 400 nM 5L-let-7-3L or 5L-let-7-s^4Up9-3L in 2× annealing buffer (500 mM KCl, 50 mM Tris pH 8.3) in a PCR machine (3 min 95° C., 30 sec 85° C. Ramp 0.5° C./s, 5 min 25° C. Ramp 0.1° C./s). Reverse transcription was performed using Superscript II (Invitrogen), Superscript III (Invitrogen), or Quant-seq RT (Lexogen) as recommended by the manufacturer. For dideoxynucleotide reactions, a final concentration of 500 μM ddNTP (as indicated) was added to RT reactions. Upon completion, RT reactions were resuspended in formamide loading buffer (Gel loading buffer II, Thermo Fisher Scientific) and subjected to 12.5% denaturing polyacrylamide gel electrophoresis. Gels were dried, exposed to storage phosphor screen (PerkinElmer), imaged on a Typhoon TRIO variable mode imager (Amersham Biosciences), and quantified using ImageQuant TL v7.0 (GE Healthcare). […]
For sequencing analysis of synthetic RNA samples (FIG. 5) barcoded libraries were demultiplexed using Picard Tools BamIndexDecoder v1.13 allowing 0 mismatches in the barcode. […] Remaining aligned reads were converted to pileup format. […] Output table was analyzed and plotted in Excel v15.22 (Microsoft) and Prism v7.0a (GraphPad). […]

For `O=c1[nH]c(=O)n([C@@H]2O[C@H](CO)[C@@H](O)[C@H]2O)cc1Br` [5BrU, 5-Bromouridine], the “T>A background conversion rate” value (Superscript II; pH 7) was 3·10^−4, the “T>C background conversion rate” value (Superscript II; pH 7) was 3·10^−4 and the “T>G background conversion rate” value (Superscript II; pH 7) was 1·10^−4. The “increase of T>A conversion rate relative to pH 7” value (Superscript II; pH 8) was 1.1 fold, the “increase of T>C conversion rate relative to pH 7” value (Superscript II; pH 8) was 2.2 fold and the “increase of T>G conversion rate relative to pH 7” value (Superscript II; pH 8) was 1.2 fold. The “increase of T>A conversion rate relative to pH 7” value (Superscript II; pH 9) was 1.4 fold, the “increase of T>C conversion rate relative to pH 7” value (Superscript II; pH 9) was 4.3 fold and the “increase of T>G conversion rate relative to pH 7” value (Superscript II; pH 9) was 1.9 fold.

With `COC[C@@H](C)NC1CCC(Nc2cc(-c3cccc(NCC4(C#N)CCOCC4)n3)c(Cl)cn2)CC1` (some centres unmarked) [NVP-2] the transcriptional response (MOLM-13 cells; high-dose, 60 nM) was “globally suppressed transcription” and the transcriptional response (MOLM-13 cells; intermediate dose, 6 nM) was “selective transcriptional responses”.

In the case of `O=C(O)Cc1c[nH]c2ccccc12` [auxin, indole-3-acetic acid], the “time to degradation of MYC” value (MYC [1]) is reported as “less than 30 ′”, the “time to complete degradation of MYC” value (MYC [2]) is reported as “less than 30 ′” and the “time to near complete degradation of BRD4” value (BRD4) is reported as ≤ 30 ′.

In the case of `Cc1sc2c(c1C)C(c1ccc(Cl)cc1)=N[C@@H](CC(=O)OC(C)(C)C)c1nnc(C)n1-2` [JQ1], the direct transcriptional response (MV4-11) is reported as “broadly suppressed transcription”, the Pol2-S2 phosphorylation (Pol2-S2 phosphorylation [3]) is reported as “globally reduced Pol2-S2 phosphorylation” and the direct transcriptional response (K562 cells; 200 nM) is reported as “selective deregulation of a small number of transcripts”. For the same molecule, the direct transcriptional response (K562 cells; high-dose (1 or 5 μM)) was “broadly suppressed transcription” and the Pol2-S2 phosphorylation (Pol2-S2 phosphorylation [4]) was “globally reduced Pol2-S2 phosphorylation”.

4-thiouridine [s^4U] was tested, and the conversion observed [5] was “G to A conversion”.

— US11859248B2, “Nucleic acid modification and identification method” (IMBA—INSTITUT FÜR MOLEKULARE BIOTECHNOLOGIE GMBH, priority 2017, dated 2024)
